How the values were obtained:
[1] = design: method as in ref [20], [23] (Reference column); details: extraction of Et4N^+Cl^– from water into chloroform at 303 K; ref [20], [23]; cited from earlier work
YFP-FRT cells = assay: Persistence of anion transport by fluorescence microscopy in YFP-FRT cells; type: cell-based, Fischer rat; details: 10 μM, continuous perfusion
Procedure: the PBS bathing cells 10 minutes prior to PBS iodide addition, whereas UTP was added to cells with the PBS iodide solution. Fluorescence was measured for 14 seconds; 2 seconds before and 12 seconds after injection of 110 µl PBS iodide solution (137 mM Cl- replaced by I-) into each well (to obtain a final concentration of I- of 100 mM).
We expressed cell fluorescence values (F) relative to the fluorescence value immediately before I- injection (F0), excluding the initial decrease, which likely represents the quenching of extracellular YFP released from cells and signal reduction accompanying the increase in solution volume bathing cells. To quantify anion transport by test anionophores, we determined the initial slope of the fluorescence decay following I - addition by fitting first order exponential functions to the last 12 seconds of each fluorescence recording. […]
fluorescence microscopy as described previously.10 In brief, YFP-FRT cells were washed 3x with PBS before transfer to a perfusion chamber mounted on the stage of a Leica DM IRB microscope. […] Any anionophore not incorporated into YFP-FRT cell membranes was removed from the chamber by perfusion with PBS when fluorescence measurements commenced. […]
Fluorescence data from 5 – 9 cells per coverslip were analysed with 4 coverslips tested for each anionophore. […]

For CCOC(=O)[C@]12CC[C@@H](NC(=S)Nc3cc(C(F)(F)F)cc(C(F)(F)F)c3)C[C@@H]1C[C@@H](NC(=S)Nc1cc(C(F)(F)F)cc(C(F)(F)F)c1)CC2 [Compound 15], the “K a to Cl^– in CHCl3” value [1] is listed as 4.7 × 10^8 M^–1.

With CCOC(=O)[C@]12CC[C@@H](NC(=S)Nc3ccc([N+](=O)[O-])cc3)C[C@@H]1C[C@@H](NC(=S)Nc1ccc([N+](=O)[O-])cc1)CC2 [Compound 12] the “duration of anion transport after anionophore delivery” value (YFP-FRT cells) was “up to 2 h”.
